In patent US12435059B2, “AMP-activated protein kinase inhibitors and methods of making and using the same” (The Regents of the University of Colorado, priority 2019, dated 2025):
Where two headings read alike, the source gives them in different places.

Tests used:
[1] = molecular target: T1, AMPKα1 (Homo sapiens (Human), UniProt Q13131); assay: LANCE Eu TR-FRET recombinant kinase assay, AMPK(α1); assay type: biochemical
Description: (§1) Assays were performed at 25° C. in a reaction mixture consisting of 2.5 μL serially diluted inhibitor solution, 2.5 μL kinase, 2.5 μL ATP and 2.5 μL substrate. Reagents were incubated for 1 hr before the reaction was halted through the addition of EDTA (10 mM) after which Eu anti-phospho-CREB (Ser133) antibody (PerkinElmer) was added at a final concentration of 2 nM for 1 hr. […] (n=3)).
Target sequence in this assay (Q13131 whole entry, looked up): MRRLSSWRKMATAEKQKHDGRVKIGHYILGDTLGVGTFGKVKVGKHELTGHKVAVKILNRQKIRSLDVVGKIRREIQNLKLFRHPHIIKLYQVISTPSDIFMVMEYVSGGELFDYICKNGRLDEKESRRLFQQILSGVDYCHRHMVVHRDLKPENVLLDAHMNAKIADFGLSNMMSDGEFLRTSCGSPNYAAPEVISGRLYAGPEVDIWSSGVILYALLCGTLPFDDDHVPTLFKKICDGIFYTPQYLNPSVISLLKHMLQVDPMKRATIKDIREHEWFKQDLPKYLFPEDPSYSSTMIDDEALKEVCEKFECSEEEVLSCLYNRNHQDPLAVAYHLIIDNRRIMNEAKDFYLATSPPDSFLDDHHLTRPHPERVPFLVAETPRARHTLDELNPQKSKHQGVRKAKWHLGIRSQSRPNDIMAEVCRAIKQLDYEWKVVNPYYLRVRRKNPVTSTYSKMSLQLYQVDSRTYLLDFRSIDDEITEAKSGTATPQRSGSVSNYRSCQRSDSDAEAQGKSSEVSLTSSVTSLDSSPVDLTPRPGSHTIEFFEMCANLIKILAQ
Target sequence in this assay (Q9Y478 whole entry partner, looked up): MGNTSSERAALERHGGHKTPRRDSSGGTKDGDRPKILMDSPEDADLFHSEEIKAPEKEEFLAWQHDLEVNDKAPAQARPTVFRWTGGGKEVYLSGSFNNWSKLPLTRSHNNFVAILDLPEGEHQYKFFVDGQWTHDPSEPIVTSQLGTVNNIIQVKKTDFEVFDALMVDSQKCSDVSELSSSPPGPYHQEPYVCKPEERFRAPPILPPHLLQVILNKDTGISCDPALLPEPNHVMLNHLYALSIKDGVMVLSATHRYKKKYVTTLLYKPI
Target sequence in this assay (P54619 whole entry partner, looked up): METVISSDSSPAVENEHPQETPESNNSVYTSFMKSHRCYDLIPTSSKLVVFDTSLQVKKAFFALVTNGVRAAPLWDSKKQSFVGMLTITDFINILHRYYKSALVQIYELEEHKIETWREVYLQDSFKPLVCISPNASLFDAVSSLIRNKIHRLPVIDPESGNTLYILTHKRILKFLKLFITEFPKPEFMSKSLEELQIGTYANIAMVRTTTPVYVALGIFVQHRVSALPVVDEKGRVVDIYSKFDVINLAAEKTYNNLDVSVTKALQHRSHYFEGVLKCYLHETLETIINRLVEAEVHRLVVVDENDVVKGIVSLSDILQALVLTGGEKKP

[2] = molecular target: AMPK(α2) (Homo sapiens (Human), UniProt P54646); assay: LANCE Eu TR-FRET recombinant kinase assay, AMPK(α2); assay type: biochemical
AMPK(α2), sequence (P54646 whole entry, looked up): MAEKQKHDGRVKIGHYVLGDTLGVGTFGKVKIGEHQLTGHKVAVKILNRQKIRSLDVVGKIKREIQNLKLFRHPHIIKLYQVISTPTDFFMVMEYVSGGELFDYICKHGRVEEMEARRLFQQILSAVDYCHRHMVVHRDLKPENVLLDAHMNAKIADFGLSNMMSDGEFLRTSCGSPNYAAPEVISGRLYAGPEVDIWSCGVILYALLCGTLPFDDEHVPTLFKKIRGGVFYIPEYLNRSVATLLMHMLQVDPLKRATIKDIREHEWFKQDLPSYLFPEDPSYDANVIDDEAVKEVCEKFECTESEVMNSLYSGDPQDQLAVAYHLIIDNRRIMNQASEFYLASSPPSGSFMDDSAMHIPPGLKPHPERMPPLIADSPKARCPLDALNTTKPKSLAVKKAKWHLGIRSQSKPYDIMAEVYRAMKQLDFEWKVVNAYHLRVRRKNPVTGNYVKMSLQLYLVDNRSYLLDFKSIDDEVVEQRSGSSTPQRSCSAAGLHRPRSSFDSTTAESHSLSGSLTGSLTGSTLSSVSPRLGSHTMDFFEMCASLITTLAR
AMPK(α2), sequence (Q9Y478 whole entry partner, looked up): as the sequence (Q9Y478 whole entry partner, looked up) above
AMPK(α2), sequence (P54619 whole entry partner, looked up): as the sequence (P54619 whole entry partner, looked up) above
Description: as §1

[3] = tested on: cellular AMPK; assay: p-ACC(Ser79) ELISA in K562 cell lysates (glucose-free media, 2-DG); assay type: cell-based; settings: K562, glucose-free media, 2-DG 12 mM, compound 5 μM single dose; relative to DMSO control
Description: FIGS. 2A and 2B are a series of graphs showing the effects of compounds of the present disclosure on cellular levels of p-ACC(Ser79) in K562 cells. FIG. 2A Quantitative ELISA determination of p-ACC(Ser79) levels in K562 lysates (1.0 mg mL^−1 total protein) following growth in glucose-free media for 24 h, 2-DG (12 mM) treatment for 1 h followed by treatment with inhibitor compounds at 5.0 μM for 2 h. Relative p-ACC levels are reported as a percentage of levels resultant from DMSO control treatment. […] Cells were collected, washed with PBS and lysed on ice in lysis buffer containing 1% Triton X (Cell Signaling). Lysates were someated (1×5 seconds) and centrifuged for 10 minutes at 10,000 rpm and 4° C., and the protein concentration in supernatants was determined by Lowry assay. Lysates were diluted with ELISA PathScan® sample diluent to a final volume of 100 μL and protein concentration of 1.0 mg/ml prior to use. The concentration of p-ACC (Ser79) was determined using an enzyme-linked immunosorbent assay according to recommended protocol (Cell Signaling, ELISA PathScan® phospho-Acetyl-CoA Carboxylase (Ser79)) and expressed as a relative percentage of the DMSO control.
The AMPK substrate ACC is used as a biomarker for the relative activity of AMPK, and the levels of p-ACC(Ser79) were measured by ELISA in the absence or presence of the compounds to determine the compounds' effects on cellular AMPK activity. The presence of total AMPK, p-AMPK, total ACC, and p-ACC was measured by Western blot in a panel of leukemic cell lines grown in glucoe competent or glucose-free media. […] The cell lysates from K562 cells grown in glucose-free media in the presence 2-DG and treated with compounds of the present disclosure were analyzed by the p-ACC(Ser79) ELISA to determine the effect of the compounds on cellular AMPK activity.

[4] = tested on: K562 cells; assay: MTS cell viability assay in K562 cells; assay type: cell-based; settings: Homo sapiens; K562, RPMI-1640; Table 2 head prints 24 h, method and FIG. 3A legend 72 hours
Description: (§2) The cells were incubated with inhibitors for 24 hours, before the plates were equilibrated to room temperature and 100 μL CellTiter-Glo reagent was added. […] Luminescent signal was plotted against the inhibitor log-dose and evaluated by a non-linear regression to determine half-maximal effect concentration (EC50) values, where possible.
An MTS assay was utilized to assess the effect of inhibitors on K562 viability.

[5] = tested on: K562 cells; assay: CellTiter-Glo cell viability assay in K562 cells (glucose-free media); assay type: cell-based; settings: Homo sapiens, read-out: EC50 CellTiter Glo 24 h
Description: as §2
(§3) In order to increase the reliance of the cells on AMPK function, assays were needed that could be performed under glucose-free conditions. Therefore in order to elucidate the mechanism of action of the AMPK inhibitors, a CellTiter-Glo cell viability assay (FIG. 3B), which provide a readout proportional to ATP concentration, and thus, cellular viability, as well as a CellTox green cellular toxicity assay (FIG. 3C and FIG. 3D), which contain a dye that fluoresces upon DNA-binding in cells with impraied membrane integrity due to cytotoxicity were performed in K562 cells grown in glucose-free media. The results are summarized in Table 2 (values are the mean±S.D. (n=3)).

[6] = tested on: K562 cells; assay: CellTox green cellular toxicity assay in K562 cells (glucose-free media); assay type: cell-based; settings: for EC50: Homo sapiens
Excerpt: Fluorescence was plotted against inhibitor log-dose and evaluated by a non-linear regression to determine half-maximal effect concentration (EC50) values, where possible.
as §3

[7] = molecular target: KDR (Homo sapiens (Human), UniProt P35968); assay: LanthaScreen Eu TR-FRET KDR competitive binding assay; settings: read-out: IC50 (nM) KDR; mean±S.D. (n=3); competitive binding
KDR, sequence (P35968 20-1356): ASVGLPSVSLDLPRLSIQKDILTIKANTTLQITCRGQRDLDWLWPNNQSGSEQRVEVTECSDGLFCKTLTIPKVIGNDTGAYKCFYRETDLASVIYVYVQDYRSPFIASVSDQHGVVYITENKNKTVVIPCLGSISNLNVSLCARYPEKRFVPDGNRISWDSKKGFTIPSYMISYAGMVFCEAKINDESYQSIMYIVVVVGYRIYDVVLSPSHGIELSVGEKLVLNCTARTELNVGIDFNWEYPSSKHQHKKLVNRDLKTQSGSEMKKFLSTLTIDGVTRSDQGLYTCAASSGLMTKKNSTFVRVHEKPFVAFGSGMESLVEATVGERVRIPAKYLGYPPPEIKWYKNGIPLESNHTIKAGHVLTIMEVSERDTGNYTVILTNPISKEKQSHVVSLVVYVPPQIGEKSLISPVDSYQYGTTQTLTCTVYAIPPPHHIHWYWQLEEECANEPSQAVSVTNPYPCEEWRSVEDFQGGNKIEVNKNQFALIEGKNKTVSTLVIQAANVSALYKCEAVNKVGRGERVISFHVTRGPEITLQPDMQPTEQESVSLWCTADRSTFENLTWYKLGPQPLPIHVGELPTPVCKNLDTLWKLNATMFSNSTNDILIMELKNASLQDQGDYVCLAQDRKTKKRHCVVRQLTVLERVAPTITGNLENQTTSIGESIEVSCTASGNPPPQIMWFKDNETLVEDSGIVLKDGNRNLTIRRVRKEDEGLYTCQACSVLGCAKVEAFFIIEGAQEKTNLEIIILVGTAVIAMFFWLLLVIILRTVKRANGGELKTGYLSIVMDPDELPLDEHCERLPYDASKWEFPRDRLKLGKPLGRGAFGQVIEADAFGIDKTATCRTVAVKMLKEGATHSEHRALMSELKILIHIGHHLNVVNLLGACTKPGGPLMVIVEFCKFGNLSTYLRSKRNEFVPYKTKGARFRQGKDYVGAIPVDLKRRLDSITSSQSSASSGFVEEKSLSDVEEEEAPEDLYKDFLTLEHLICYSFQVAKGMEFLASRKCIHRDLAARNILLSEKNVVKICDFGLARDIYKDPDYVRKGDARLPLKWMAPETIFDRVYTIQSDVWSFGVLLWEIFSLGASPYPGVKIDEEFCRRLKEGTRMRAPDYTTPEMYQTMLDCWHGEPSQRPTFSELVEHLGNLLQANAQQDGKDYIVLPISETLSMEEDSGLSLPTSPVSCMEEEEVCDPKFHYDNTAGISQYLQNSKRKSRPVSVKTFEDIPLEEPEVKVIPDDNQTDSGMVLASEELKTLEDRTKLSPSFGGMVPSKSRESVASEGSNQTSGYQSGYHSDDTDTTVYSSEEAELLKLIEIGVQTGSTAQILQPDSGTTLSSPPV

[8] = molecular target: T1, AMPKα1; settings: purified AMPK protein; read-out: AMPKα1 IC50, 32P radioactivity assay; cited from earlier work
Target sequence in this assay (Q13131 whole entry): as the sequence (Q13131 whole entry, looked up) above
Target sequence in this assay (Q9Y478 whole entry partner): as the sequence (Q9Y478 whole entry partner, looked up) above
Target sequence in this assay (P54619 whole entry partner): as the sequence (P54619 whole entry partner, looked up) above

[9] = molecular target: 468 kinases (Homo sapiens, UniProt Q14004); assay: biochemical; assay type: binding; settings: read-out: % Inhibition @ 100 nM, CDC2L5
[10] = molecular target: BTK (Homo sapiens (Human), UniProt Q06187); assay: Kinome binding analysis at 100 nM, BTK
BTK, sequence (Q06187 whole entry): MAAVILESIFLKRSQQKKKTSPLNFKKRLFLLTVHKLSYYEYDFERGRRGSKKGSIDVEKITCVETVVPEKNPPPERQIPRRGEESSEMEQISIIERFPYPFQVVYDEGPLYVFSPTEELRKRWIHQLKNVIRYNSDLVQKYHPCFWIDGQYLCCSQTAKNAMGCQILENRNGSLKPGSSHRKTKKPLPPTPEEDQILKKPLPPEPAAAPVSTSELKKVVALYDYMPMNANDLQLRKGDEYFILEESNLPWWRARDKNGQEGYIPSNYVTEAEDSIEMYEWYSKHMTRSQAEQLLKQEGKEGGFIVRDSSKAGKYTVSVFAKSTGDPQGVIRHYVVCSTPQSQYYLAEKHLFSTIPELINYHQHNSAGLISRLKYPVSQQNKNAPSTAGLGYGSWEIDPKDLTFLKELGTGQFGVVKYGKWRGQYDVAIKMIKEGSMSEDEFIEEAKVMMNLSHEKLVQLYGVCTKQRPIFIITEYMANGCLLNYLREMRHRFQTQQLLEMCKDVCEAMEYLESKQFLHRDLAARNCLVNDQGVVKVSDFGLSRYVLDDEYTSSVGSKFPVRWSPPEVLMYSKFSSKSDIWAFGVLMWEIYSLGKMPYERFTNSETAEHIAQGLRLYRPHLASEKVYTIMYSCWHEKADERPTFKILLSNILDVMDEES

[11] = read-out: EC50 CellTox Green 48 h, 48 h

Structure (SMILES): CCN(CC)CCNC(=O)c1c(C)[nH]c(/C=C2\C(=O)N(C)c3ccc(F)cc32)c1C [Compound No. 1, (Z)—N-(2-(Diethylamino)ethyl)-5-((5-fluoro-1-methyl-2-oxoindolin-3-ylidene)methyl)-2,4-dimethyl-1H-pyrrole-3-carboxamide]
- AMPK(α1) % inhibition at 20 μM ([1]; at 20 μM): 40%
- AMPK(α2) % inhibition at 10 μM ([2]; at 10 μM): 17%
- Relative p-ACC(Ser79) level [3]: 97.1 % of control
- EC50 [4]: 6.79 ± 0.15 µM
- EC50 [5]: 11.8 ± 0.78 µM
- EC50 ([6]; read-out: EC50 CellTox Green 24 h, 24 h): 12.1 ± 0.91 µM
- EC50 [6, 11]: 6.91 ± 0.06 µM

Structure (SMILES): CCN(CC)CCNC(=O)c1c(C)[nH]c(/C=C2\C(=O)Nc3ccc(CCC#N)cc32)c1C [Compound No. 15, (Z)-5-((5-(2-cyanoethyl)-2-oxoindolin-3-ylidene)methyl)-N-(2-(diethylamino)ethyl)-2,4-dimethyl-1H-pyrrole-3-carboxamide]
- IC50 ([1]; mean±S.D. (n=3), ATP 8 μM, read-out: IC50 (nM) AMPK(α1)): 164 ± 10 nM
- IC50 ([2]; mean±S.D. (n=3), ATP 20 μM): 32.4 ± 7.8 nM
- Relative p-ACC(Ser79) level [3]: 34.1 % of control
- EC50 [4]: 14.8 ± 0.22 µM
- EC50 [5]: 17.8 ± 0.78 µM
- EC50 [6, 11]: 13.6 ± 1.07 µM
- IC50 [7]: 1330 ± 140 nM

Structure (SMILES): CNC(=O)c1ccccc1Oc1nc(Nc2cc(OC)c(OC)c(OC)c2)ncc1Br [SBI-0206965]
- IC50 [8]: 0.4 µM

Structure (SMILES): CCN(CC)CCNC(=O)c1c(C)[nH]c(/C=C2\C(=O)Nc3ccc(F)cc32)c1C [Sunitinib, (Z)—N-(2-(Diethylamino)ethyl)-5-((5-fluoro-2-oxoindolin-3-ylidene)methyl)-2,4-dimethyl-1H-pyrrole-3-carboxamide, reference compound]
- CellTox Green 24 h % inhibition at 50 μM ([6]; 24 h, at 50 μM): 61% at 50 μM
- inhibition at 0.1 µM [9]: 49%
- BTK inhibition, in words ([10]; 100 nM): strongly inhibited
- inhibition at 0.1 µM ([10]; read-out: Percentage inhibition at 100 nM, BTK): 91.3%
